Reference: PubChem BioAssay (NCI)
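Compound exposure: 48 hours, 5 concentrations, 96-well plates. GI50 = concentration required for 50% inhibition of growth. At the TGI there is no net growth.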

Assays:
Assay in all cases: NCI-60 cell line screen, 48 h
A498 renal = tested on: A498 renal
DU-145 prostate = tested on: DU-145 prostate
HCT-15 colon = tested on: HCT-15 colon
HS 578T breast = tested on: HS 578T breast
K-562 leukemia = tested on: K-562 leukemia
NCI-H226 lung = tested on: NCI-H226 lung
OVCAR-3 ovarian = tested on: OVCAR-3 ovarian
SNB-19 CNS = tested on: SNB-19 CNS
U251 CNS = tested on: U251 CNS
UO-31 renal = tested on: UO-31 renal

SMILES | GI50 (A498 renal) [µM] | TGI (A498 renal) [µM] | GI50 (DU-145 prostate) [µM] | TGI (DU-145 prostate) [µM] | GI50 (HCT-15 colon) [µM] | TGI (HCT-15 colon) [µM] | GI50 (HS 578T breast) [µM] | TGI (HS 578T breast) [µM] | GI50 (K-562 leukemia) [µM] | TGI (K-562 leukemia) [µM] | GI50 (NCI-H226 lung) [µM] | TGI (NCI-H226 lung) [µM] | GI50 (OVCAR-3 ovarian) [µM] | TGI (OVCAR-3 ovarian) [µM] | GI50 (SNB-19 CNS) [µM] | TGI (SNB-19 CNS) [µM] | GI50 (U251 CNS) [µM] | TGI (U251 CNS) [µM] | GI50 (UO-31 renal) [µM] | TGI (UO-31 renal) [µM]
C[C@]12CC[C@H](O)CC1=CC[C@@H]1[C@@H]2CC[C@]2(C)C(=O)/C(=C/c3cccc(OCCCn4ccnc4)c3)C[C@@H]12 | 20.5 | 39.1 | 19.9 | 38.7 | 16.8 | 40.4 | 21.5 | 54.2 | 16 | 58.1 | 21.4 | 50.2 | 28.8 | > 100 | 27 | 77.3 | 24.8 | 77.3 | 16 | 35.1
Cc1ccc(NS(=O)(=O)c2ccc(-c3cnc(C4CC4)o3)cc2)cc1 | 2.05 | 6.83 | 3.99 | 16.5 | 1.48 | 13.1 | 2.71 | 13.5 | 0.519 | 16.3 | 7.37 | 24.5 | 2.1 | 6.13 | 3.88 | 16.6 | 4.18 | 17.5 | 3.49 | 16.1
Cn1ncc2cc(-c3cnc(N)c(Cl)c3N3CCC4(CCNC4=O)CC3)ccc21 | 11.2 | 32.4 | 52.1 | > 100 | 22.7 | > 100 | 19.8 | 89.5 | 45.5 | > 100 | 38.1 | > 100 | 42.9 | > 100 | 94.2 | > 100 | 43.7 | > 100 | 17.7 | > 100
CCCC[C@@H]1NC(=O)[C@H](CCCCN)NC(=O)[C@H](CCCNC(=N)N)NC(=O)[C@H](CC(C)C)NC(=O)[C@@H](NC(=O)[C@H](Cc2cccc(Cl)c2)NC(=O)[C@@H]2CCCN2C(=O)[C@@H](NC(C)=O)C(C)C)CCSSC[C@@H](C(=O)N[C@@H](CCCCN)C(=O)N2CCC[C@H]2C(=O)N2CCC[C@H]2C(=O)N[C@@H](CCC(=O)O)C(N)=O)NC(=O)[C@H](Cc2ccccc2)NC(=O)[C@H](CO)NC(=O)[C@H](C)NC(=O)[C@@H]2CCCN2C1=O | > 50 | > 50 | > 50 | > 50 | > 50 | > 50 | > 50 | > 50 | > 50 | > 50 | > 50 | > 50 | > 50 | > 50 | > 50 | > 50 | > 50 | > 50 | > 50 | > 50
CCCOC(=O)N[C@H]1CCc2c(Br)c(OC)c(OC)c(OC)c2-c2ccc(SC)c(=O)cc21 | < 0.0135 | 0.0509 | 0.0305 | 0.234 | 0.0218 | > 36 | 0.0321 | 49.1 | < 0.01 | > 100 | 0.0341 | 6.71 | 0.0319 | 10.4 | 0.0425 | > 100 | 0.0363 | 15.1 | 0.103 | 21.9
